Laboratory results as given in patent US4032625A, “Bone-seeking technetium-99m complex” (priority 1975, dated 1977).
Read-outs that look alike come from different tables or passages of the source.

Details: 2 Hrs

In the case of “99m technetium-tin-1-amino-ethane-1,1-diphosphonate complex [^99m Tc-Sn-AEDP]”, the “Ratio of 99mTc complex/85Sr: Ave Bone” value (0.01 mg/kg) is reported as 0.735, the “Ratio of 99mTc complex/85Sr: Blood” value (0.01 mg/kg) is reported as 0.406 and the “Ratio of 99mTc complex/85Sr: Femur” value (0.01 mg/kg) is reported as 0.720. The “Ratio of 99mTc complex/85Sr: Kidneys” value (0.01 mg/kg) was 4.99, the “Ratio of 99mTc complex/85Sr: Liver” value (0.01 mg/kg) was 3.00 and the “Ratio of 99mTc complex/85Sr: Marrow” value (0.01 mg/kg) was 1.27. The “Ratio of 99mTc complex/85Sr: Muscle” value (0.01 mg/kg) was 0.338, the “Ratio of 99mTc complex/85Sr: Pelvis” value (0.01 mg/kg) was 0.794 and the “Ratio of 99mTc complex/85Sr: Spine” value (0.01 mg/kg) was 0.689. For the same substance, the “Ratio of 99mTc complex/85Sr: Tibia” value (0.01 mg/kg) was 0.710, the “Tc/Sr (last line of distribution table)” value (0.01 mg/kg) was 0.736 and the “% Dose in Whole Organ: Blood” value (0.01 mg/kg AEDP) was 1.18 % Dose. For the same substance, the “% Dose in Whole Organ: Kidneys” value (0.01 mg/kg AEDP) was 1.59 % Dose, the “% Dose in Whole Organ: Liver” value (0.01 mg/kg AEDP) was 1.69 % Dose and the “% Dose in Whole Organ: Marrow” value (0.01 mg/kg AEDP) was 0.657 % Dose. For the same substance, the “% Dose in Whole Organ: Muscle” value (0.01 mg/kg AEDP) was 0.988 % Dose, the “% Dose in Whole Organ: W. Femur” value (0.01 mg/kg AEDP) was 2.34 % Dose and the “% Dose in Whole Organ: W. Tibia” value (0.01 mg/kg AEDP) was 1.96 % Dose. The “% Dose/1% Body weight: Blood” value (0.01 mg/kg AEDP) was 0.168 % Dose/1% Body weight, the “% Dose/1% Body weight: Bone Ave” value (0.01 mg/kg AEDP) was 7.60 % Dose/1% Body weight and the “% Dose/1% Body weight: Femur” value (0.01 mg/kg AEDP) was 7.54 % Dose/1% Body weight. For the same substance, the “% Dose/1% Body weight: Kidneys” value (0.01 mg/kg AEDP) was 2.72 % Dose/1% Body weight, the “% Dose/1% Body weight: Liver” value (0.01 mg/kg AEDP) was 0.617 % Dose/1% Body weight and the “% Dose/1% Body weight: Marrow” value (0.01 mg/kg AEDP) was 0.300 % Dose/1% Body weight. For the same substance, the “% Dose/1% Body weight: Muscle” value (0.01 mg/kg AEDP) was 0.037 % Dose/1% Body weight, the “% Dose/1% Body weight: Pelvis” value (0.01 mg/kg AEDP) was 8.53 % Dose/1% Body weight and the “% Dose/1% Body weight: Spine” value (0.01 mg/kg AEDP) was 6.20 % Dose/1% Body weight. For the same substance, the “% Dose/1% Body weight: Tibia” value (0.01 mg/kg AEDP) was 8.13 % Dose/1% Body weight, the “% Dose: Urine” value (0.01 mg/kg AEDP) was 48.39 % Dose and the “Ratio of 99mTc complex/85Sr: Ave Bone” value (0.05 mg/kg) was 0.683. For the same substance, the “Ratio of 99mTc complex/85Sr: Blood” value (0.05 mg/kg) was 0.409, the “Ratio of 99mTc complex/85Sr: Femur” value (0.05 mg/kg) was 0.687 and the “Ratio of 99mTc complex/85Sr: Kidneys” value (0.05 mg/kg) was 3.30. The “Ratio of 99mTc complex/85Sr: Liver” value (0.05 mg/kg) was 1.32, the “Ratio of 99mTc complex/85Sr: Marrow” value (0.05 mg/kg) was 1.18 and the “Ratio of 99mTc complex/85Sr: Muscle” value (0.05 mg/kg) was 0.236. The “Ratio of 99mTc complex/85Sr: Pelvis” value (0.05 mg/kg) was 0.684, the “Ratio of 99mTc complex/85Sr: Spine” value (0.05 mg/kg) was 0.675 and the “Ratio of 99mTc complex/85Sr: Tibia” value (0.05 mg/kg) was 0.681. The “Tc/Sr (last line of distribution table)” value (0.05 mg/kg) was 0.680, the “% Dose in Whole Organ: Blood” value (0.05 mg/kg AEDP) was 1.01 % Dose and the “% Dose in Whole Organ: Kidneys” value (0.05 mg/kg AEDP) was 1.13 % Dose. The “% Dose in Whole Organ: Liver” value (0.05 mg/kg AEDP) was 0.806 % Dose, the “% Dose in Whole Organ: Marrow” value (0.05 mg/kg AEDP) was 0.549 % Dose and the “% Dose in Whole Organ: Muscle” value (0.05 mg/kg AEDP) was 1.20 % Dose. The “% Dose in Whole Organ: W. Femur” value (0.05 mg/kg AEDP) was 2.41 % Dose, the “% Dose in Whole Organ: W. Tibia” value (0.05 mg/kg AEDP) was 2.14 % Dose and the “% Dose/1% Body weight: Blood” value (0.05 mg/kg AEDP) was 0.144 % Dose/1% Body weight. The “% Dose/1% Body weight: Bone Ave” value (0.05 mg/kg AEDP) was 8.39 % Dose/1% Body weight, the “% Dose/1% Body weight: Femur” value (0.05 mg/kg AEDP) was 8.63 % Dose/1% Body weight and the “% Dose/1% Body weight: Kidneys” value (0.05 mg/kg AEDP) was 1.83 % Dose/1% Body weight. The “% Dose/1% Body weight: Liver” value (0.05 mg/kg AEDP) was 0.176 % Dose/1% Body weight, the “% Dose/1% Body weight: Marrow” value (0.05 mg/kg AEDP) was 0.250 % Dose/1% Body weight and the “% Dose/1% Body weight: Muscle” value (0.05 mg/kg AEDP) was 0.028 % Dose/1% Body weight. For the same substance, the “% Dose/1% Body weight: Pelvis” value (0.05 mg/kg AEDP) was 7.82 % Dose/1% Body weight, the “% Dose/1% Body weight: Spine” value (0.05 mg/kg AEDP) was 7.80 % Dose/1% Body weight and the “% Dose/1% Body weight: Tibia” value (0.05 mg/kg AEDP) was 9.30 % Dose/1% Body weight. The “% Dose: Urine” value (0.05 mg/kg AEDP) was 44.21 % Dose, the “Ratio of 99mTc complex/85Sr: Ave Bone” value (0.1 mg/kg) was 0.716 and the “Ratio of 99mTc complex/85Sr: Blood” value (0.1 mg/kg) was 0.409. The “Ratio of 99mTc complex/85Sr: Femur” value (0.1 mg/kg) was 0.714, the “Ratio of 99mTc complex/85Sr: Kidneys” value (0.1 mg/kg) was 2.94 and the “Ratio of 99mTc complex/85Sr: Liver” value (0.1 mg/kg) was 0.490. For the same substance, the “Ratio of 99mTc complex/85Sr: Marrow” value (0.1 mg/kg) was 0.621, the “Ratio of 99mTc complex/85Sr: Muscle” value (0.1 mg/kg) was 0.205 and the “Ratio of 99mTc complex/85Sr: Pelvis” value (0.1 mg/kg) was 0.725. The “Ratio of 99mTc complex/85Sr: Spine” value (0.1 mg/kg) was 0.705, the “Ratio of 99mTc complex/85Sr: Tibia” value (0.1 mg/kg) was 0.721 and the “Tc/Sr (last line of distribution table)” value (0.1 mg/kg) was 0.717. The “% Dose in Whole Organ: Blood” value (0.1 mg/kg AEDP) was 0.96 % Dose, the “% Dose in Whole Organ: Kidneys” value (0.1 mg/kg AEDP) was 0.913 % Dose and the “% Dose in Whole Organ: Liver” value (0.1 mg/kg AEDP) was 0.309 % Dose. The “% Dose in Whole Organ: Marrow” value (0.1 mg/kg AEDP) was 0.211 % Dose, the “% Dose in Whole Organ: Muscle” value (0.1 mg/kg AEDP) was 1.46 % Dose and the “% Dose in Whole Organ: W. Femur” value (0.1 mg/kg AEDP) was 2.38 % Dose. For the same substance, the “% Dose in Whole Organ: W. Tibia” value (0.1 mg/kg AEDP) was 2.18 % Dose, the “% Dose/1% Body weight: Blood” value (0.1 mg/kg AEDP) was 0.137 % Dose/1% Body weight and the “% Dose/1% Body weight: Bone Ave” value (0.1 mg/kg AEDP) was 7.51 % Dose/1% Body weight. For the same substance, the “% Dose/1% Body weight: Femur” value (0.1 mg/kg AEDP) was 7.93 % Dose/1% Body weight, the “% Dose/1% Body weight: Kidneys” value (0.1 mg/kg AEDP) was 1.28 % Dose/1% Body weight and the “% Dose/1% Body weight: Liver” value (0.1 mg/kg AEDP) was 0.083 % Dose/1% Body weight. The “% Dose/1% Body weight: Marrow” value (0.1 mg/kg AEDP) was 0.096 % Dose/1% Body weight, the “% Dose/1% Body weight: Muscle” value (0.1 mg/kg AEDP) was 0.034 % Dose/1% Body weight and the “% Dose/1% Body weight: Pelvis” value (0.1 mg/kg AEDP) was 6.24 % Dose/1% Body weight. For the same substance, the “% Dose/1% Body weight: Spine” value (0.1 mg/kg AEDP) was 7.36 % Dose/1% Body weight, the “% Dose/1% Body weight: Tibia” value (0.1 mg/kg AEDP) was 8.50 % Dose/1% Body weight and the “% Dose: Urine” value (0.1 mg/kg AEDP) was 38.8 % Dose. For the same substance, the “Ratio of 99mTc complex/85Sr: Ave Bone” value (0.5 mg/kg) was 0.644, the “Ratio of 99mTc complex/85Sr: Blood” value (0.5 mg/kg) was 0.280 and the “Ratio of 99mTc complex/85Sr: Femur” value (0.5 mg/kg) was 0.628. For the same substance, the “Ratio of 99mTc complex/85Sr: Kidneys” value (0.5 mg/kg) was 2.47, the “Ratio of 99mTc complex/85Sr: Liver” value (0.5 mg/kg) was 0.459 and the “Ratio of 99mTc complex/85Sr: Marrow” value (0.5 mg/kg) was 0.500. For the same substance, the “Ratio of 99mTc complex/85Sr: Muscle” value (0.5 mg/kg) was 0.140, the “Ratio of 99mTc complex/85Sr: Pelvis” value (0.5 mg/kg) was 0.692 and the “Ratio of 99mTc complex/85Sr: Spine” value (0.5 mg/kg) was 0.614. For the same substance, the “Ratio of 99mTc complex/85Sr: Tibia” value (0.5 mg/kg) was 0.632, the “Tc/Sr (last line of distribution table)” value (0.5 mg/kg) was 0.645 and the “% Dose in Whole Organ: Blood” value (0.5 mg/kg AEDP) was 1.38 % Dose. The “% Dose in Whole Organ: Kidneys” value (0.5 mg/kg AEDP) was 1.11 % Dose, the “% Dose in Whole Organ: Liver” value (0.5 mg/kg AEDP) was 0.216 % Dose and the “% Dose in Whole Organ: Marrow” value (0.5 mg/kg AEDP) was 0.23 % Dose. For the same substance, the “% Dose in Whole Organ: Muscle” value (0.5 mg/kg AEDP) was 0.883 % Dose, the “% Dose in Whole Organ: W. Femur” value (0.5 mg/kg AEDP) was 1.74 % Dose and the “% Dose in Whole Organ: W. Tibia” value (0.5 mg/kg AEDP) was 1.55 % Dose. For the same substance, the “% Dose/1% Body weight: Blood” value (0.5 mg/kg AEDP) was 0.197 % Dose/1% Body weight, the “% Dose/1% Body weight: Bone Ave” value (0.5 mg/kg AEDP) was 6.96 % Dose/1% Body weight and the “% Dose/1% Body weight: Femur” value (0.5 mg/kg AEDP) was 6.59 % Dose/1% Body weight. The “% Dose/1% Body weight: Kidneys” value (0.5 mg/kg AEDP) was 2.11 % Dose/1% Body weight, the “% Dose/1% Body weight: Liver” value (0.5 mg/kg AEDP) was 0.079 % Dose/1% Body weight and the “% Dose/1% Body weight: Marrow” value (0.5 mg/kg AEDP) was 0.104 % Dose/1% Body weight. The “% Dose/1% Body weight: Muscle” value (0.5 mg/kg AEDP) was 0.021 % Dose/1% Body weight, the “% Dose/1% Body weight: Pelvis” value (0.5 mg/kg AEDP) was 7.93 % Dose/1% Body weight and the “% Dose/1% Body weight: Spine” value (0.5 mg/kg AEDP) was 6.05 % Dose/1% Body weight. For the same substance, the “% Dose/1% Body weight: Tibia” value (0.5 mg/kg AEDP) was 7.27 % Dose/1% Body weight and the “% Dose: Urine” value (0.5 mg/kg AEDP) was 48.85 % Dose.
